In ChEMBL document CHEMBL1150135, “Pharacine, a natural p-cyclophane and other indole derivatives from Cytophaga sp. strain AM13.1” (J Nat Prod, 2002):
Activity calls are given as the source filed them.

Legend:
Assay type in all cases: functional, organism-based
Staphylococcus aureus = assay: Antimicrobial activity against Staphylococcus aureus by agar diffusion method
Bacillus subtilis = assay: Antimicrobial activity against Bacillus subtilis by agar diffusion method
Rhizomucor miehei = assay: Antimicrobial activity against Mucor miehei by agar diffusion method
[1] = system: Streptomyces viridochromogenes; assay: Antimicrobial activity against Streptomyces viridochromogenes by agar diffusion method
Escherichia coli = assay: Antimicrobial activity against Escherichia coli by agar diffusion method
Candida albicans = assay: Antimicrobial activity against Candida albicans by agar diffusion method

Measured: Activity

c1ccc2c(Cc3cnc(Cc4c[nH]c5ccccc45)cn3)c[nH]c2c1
inactive: all assays above

NC(=O)Cc1ccc(O)cc1
inactive: all assays above

CC(C)CC(=O)NCCc1c[nH]c2ccccc12
inactive: all assays above

O=C1OCCCCOC(=O)c2ccc(cc2)C(=O)OCCCCOC(=O)c2ccc1cc2
inactive: all assays above
